Measured values reported in US9937151B2, “Carbapenem antibacterials with gram-negative activity” (priority 2010, dated 2018).
≈ marks a conversion by molar mass, not a printed value.

Test system: G(−) bacterial strains
Assay: Dilution antimicrobial susceptibility tests (MIC, NCCLS agar dilution / broth dilution)
Format: cell-based, Gram-negative organisms
Details: unit assumed
Method: The MIC (minimum inhibitory concentration) was determined by the NCCLS (National Committee for Clinical Laboratory Standards) methods 2000. Methods for dilution antimicrobial susceptibility testing for bacteria that growth aerobically (M7-A5, vol. 20, No. 2). The agar dilution method for determining antimicrobial susceptibility was carried out using Mueller-Hinton agar. A final inoculum of 10^4 CFU/spot was applied with an inoculation device. Broth dilution tests were performed with 5×10^5 CFU/well in 96 well plates. The susceptibilities of streptococci were determined by Mueller-Hinton agar supplemented with 5% sheep blood. All assays were run with the indicated control strains, available from the ATCC (American Type Culture Collection, Rockville, Md.).
Abbreviations used in Table 1 are defined as follows: Cf-R: Ceftazidime Resistance, Ci-R: Ciprofloxacin Resistance, Gen-R: Gentamycin Resistance, Imp-R: Imipenem Resistance, Mp-R: Meropenem Resistance, Ofx-R: Ofloxacin Resistance, B+: β-lactamase Production, AmpC: AmpC-lactamase Hyper production, CBPase: Carbapenemase Production.

[1] = strain #1 Acinetobacter calcoaceticus
[2] = strain #2 Acinetobacter baumannii, Cf-R, Ci-R
[3] = strain #3 Acinetobacter baumannii, Cf-R, Ci-R, Mp-I
[4] = strain #4 Acinetobacter baumannii, Cf-R, Imp-I, CBPase
[5] = strain #7 Enterobacter aerogenes
[6] = strain #8 Enterobacter cloacae, Cf-R, B+
[7] = strain #9 Enterobacter cloacae, Cf-R
[8] = strain #10 Escherichia coli, Ci-R
[9] = strain #11 Escherichia coli, Ci-R, AmpC
[10] = strain #15 Klebsiella pneumoniae
[11] = strain #16 Moraxella catarrhalis
[12] = strain #21 Providencia rettgeri
[13] = strain #22 Salmonella typhimurium
[14] = strain #25 Shigella dysenteriae
[15] = strain #28 Stenotrophomonas maltophilia
[16] = strain #29 Pseudomonas aeruginosa
[17] = strain #30 Pseudomonas aeruginosa
[18] = strain #31 Pseudomonas aeruginosa, Ofx-R
[19] = strain #32 Pseudomonas aeruginosa, Cf-R
[20] = strain #33 Pseudomonas aeruginosa, Ci-R
[21] = strain #34 Pseudomonas aeruginosa, Gen-R
[22] = strain #35 Pseudomonas aeruginosa, Ip-R
[23] = strain #36 Pseudomonas aeruginosa, Cf-R, Ci-R, Mp-R

Structure (SMILES)	MIC [1] [µg/mL]	MIC [2] [µg/mL]	MIC [3] [µg/mL]	MIC [4] [µg/mL]	MIC (strain #5 Citrobacter diversus) [µg/mL]	MIC (strain #6 Citrobacter freundii) [µg/mL]	MIC [5] [µg/mL]	MIC [6] [µg/mL]	MIC [7] [µg/mL]	MIC [8] [µg/mL]	MIC [9] [µg/mL]	MIC (strain #12 Escherichia coli) [µg/mL]	MIC (strain #13 Escherichia coli) [µg/mL]	MIC (strain #14 Klebsiella oxytoca) [µg/mL]	MIC [10] [µg/mL]	MIC [11] [µg/mL]	MIC (strain #17 Morganella Morganii) [µg/mL]	MIC (strain #18 Morganella Morganii) [µg/mL]	MIC (strain #19 Proteus vulgaris) [µg/mL]	MIC (strain #20 Proteus mirabilis) [µg/mL]	further results
C[C@@H](O)C1C(=O)N2C(C(=O)O)=C(CN3CC[C@H](NC(=O)C(F)(F)F)C3)[C@H](C)C12 (stereo partly drawn) [Compound 37]	2 (≈ 4.93 µM)	4 (≈ 9.87 µM)	8 (≈ 19.7 µM)	4 (≈ 9.87 µM)	0.5 (≈ 1.23 µM)	0.5 (≈ 1.23 µM)	2 (≈ 4.93 µM)	0.5 (≈ 1.23 µM)	1 (≈ 2.47 µM)	0.5 (≈ 1.23 µM)	0.5 (≈ 1.23 µM)	0.5 (≈ 1.23 µM)	0.5 (≈ 1.23 µM)	0.5 (≈ 1.23 µM)	1 (≈ 2.47 µM)	≤ 0.008	2 (≈ 4.93 µM)	2 (≈ 4.93 µM)	1 (≈ 2.47 µM)	0.5 (≈ 1.23 µM)	MIC [12]: 1 µg/mL (≈ 2.47 µM); MIC [13]: 0.5 µg/mL (≈ 1.23 µM); MIC (strain #23 Serratia marcescens): 1 µg/mL (≈ 2.47 µM); MIC (strain #24 Serratia marcescens): 2 µg/mL (≈ 4.93 µM); MIC [14]: 0.5 µg/mL (≈ 1.23 µM); MIC (strain #26 Shigella sonnei): 0.5 µg/mL (≈ 1.23 µM); MIC (strain #27 Shigella flexneri): 0.25 µg/mL (≈ 0.617 µM); MIC [15]: 1 µg/mL (≈ 2.47 µM); MIC [16]: 8 µg/mL (≈ 19.7 µM); MIC [17]: 8 µg/mL (≈ 19.7 µM); MIC [18]: 4 µg/mL (≈ 9.87 µM); MIC [19]: 8 µg/mL (≈ 19.7 µM); MIC [20]: 8 µg/mL (≈ 19.7 µM); MIC [21]: 8 µg/mL (≈ 19.7 µM); MIC [22]: 16 µg/mL (≈ 39.5 µM); MIC [23]: 32 µg/mL (≈ 78.9 µM)
CN[C@H]1CCN(CC2=C(C(=O)O)N3C(=O)C([C@@H](C)O)C3[C@H]2C)C1 (stereo partly drawn) [Compound 43]	0.5 (≈ 1.55 µM)	1 (≈ 3.09 µM)	4 (≈ 12.4 µM)	4 (≈ 12.4 µM)	0.25 (≈ 0.773 µM)	0.25 (≈ 0.773 µM)	1 (≈ 3.09 µM)	0.25 (≈ 0.773 µM)	0.5 (≈ 1.55 µM)	0.25 (≈ 0.773 µM)	0.25 (≈ 0.773 µM)	0.25 (≈ 0.773 µM)	0.25 (≈ 0.773 µM)	0.5 (≈ 1.55 µM)	0.5 (≈ 1.55 µM)	≤ 0.008	2 (≈ 6.18 µM)	2 (≈ 6.18 µM)	1 (≈ 3.09 µM)	0.25 (≈ 0.773 µM)	MIC [12]: 1 µg/mL (≈ 3.09 µM); MIC [13]: 0.5 µg/mL (≈ 1.55 µM); MIC (strain #23 Serratia marcescens): 1 µg/mL (≈ 3.09 µM); MIC (strain #24 Serratia marcescens): 1 µg/mL (≈ 3.09 µM); MIC [14]: 0.5 µg/mL (≈ 1.55 µM); MIC (strain #26 Shigella sonnei): 0.25 µg/mL (≈ 0.773 µM); MIC (strain #27 Shigella flexneri): 0.25 µg/mL (≈ 0.773 µM); MIC [15]: 0.5 µg/mL (≈ 1.55 µM); MIC [16]: 4 µg/mL (≈ 12.4 µM); MIC [17]: 2 µg/mL (≈ 6.18 µM); MIC [18]: 1 µg/mL (≈ 3.09 µM); MIC [19]: 4 µg/mL (≈ 12.4 µM); MIC [20]: 4 µg/mL (≈ 12.4 µM); MIC [21]: 4 µg/mL (≈ 12.4 µM); MIC [22]: 8 µg/mL (≈ 24.7 µM); MIC [23]: 16 µg/mL (≈ 49.5 µM)
C[C@@H](O)C1C(=O)N2C(C(=O)O)=C(CN3CC[C@H](N(C)C)C3)[C@H](C)C12 (stereo partly drawn) [Compound 46]	1 (≈ 2.96 µM)	2 (≈ 5.93 µM)	4 (≈ 11.9 µM)	4 (≈ 11.9 µM)	0.25 (≈ 0.741 µM)	0.5 (≈ 1.48 µM)	1 (≈ 2.96 µM)	0.25 (≈ 0.741 µM)	0.5 (≈ 1.48 µM)	0.25 (≈ 0.741 µM)	0.25 (≈ 0.741 µM)	0.25 (≈ 0.741 µM)	0.25 (≈ 0.741 µM)	0.5 (≈ 1.48 µM)	0.5 (≈ 1.48 µM)	≤ 0.008	2 (≈ 5.93 µM)	2 (≈ 5.93 µM)	1 (≈ 2.96 µM)	0.25 (≈ 0.741 µM)	MIC [12]: 1 µg/mL (≈ 2.96 µM); MIC [13]: 0.25 µg/mL (≈ 0.741 µM); MIC (strain #23 Serratia marcescens): 1 µg/mL (≈ 2.96 µM); MIC (strain #24 Serratia marcescens): 1 µg/mL (≈ 2.96 µM); MIC [14]: 0.5 µg/mL (≈ 1.48 µM); MIC (strain #26 Shigella sonnei): 0.25 µg/mL (≈ 0.741 µM); MIC (strain #27 Shigella flexneri): 0.25 µg/mL (≈ 0.741 µM); MIC [15]: 0.5 µg/mL (≈ 1.48 µM); MIC [16]: 4 µg/mL (≈ 11.9 µM); MIC [17]: 4 µg/mL (≈ 11.9 µM); MIC [18]: 1 µg/mL (≈ 2.96 µM); MIC [19]: 4 µg/mL (≈ 11.9 µM); MIC [20]: 4 µg/mL (≈ 11.9 µM); MIC [21]: 4 µg/mL (≈ 11.9 µM); MIC [22]: 16 µg/mL (≈ 47.4 µM); MIC [23]: 32 µg/mL (≈ 94.8 µM)
C[C@@H](O)C1C(=O)N2C(C(=O)O)=C(CN3CC(C(N)=O)C3)[C@H](C)C12 (stereo partly drawn) [Compound 49]	0.25 (≈ 0.773 µM)	0.5 (≈ 1.55 µM)	2 (≈ 6.19 µM)	1 (≈ 3.09 µM)	0.063 (≈ 0.195 µM)	0.13 (≈ 0.402 µM)	0.25 (≈ 0.773 µM)	0.063 (≈ 0.195 µM)	0.13 (≈ 0.402 µM)	0.063 (≈ 0.195 µM)	0.063 (≈ 0.195 µM)	0.063 (≈ 0.195 µM)	0.13 (≈ 0.402 µM)	0.25 (≈ 0.773 µM)	0.25 (≈ 0.773 µM)	≤ 0.008	2 (≈ 6.19 µM)	1 (≈ 3.09 µM)	0.5 (≈ 1.55 µM)	0.13 (≈ 0.402 µM)	MIC [12]: 0.5 µg/mL (≈ 1.55 µM); MIC [13]: 0.13 µg/mL (≈ 0.402 µM); MIC (strain #23 Serratia marcescens): 0.25 µg/mL (≈ 0.773 µM); MIC (strain #24 Serratia marcescens): 0.25 µg/mL (≈ 0.773 µM); MIC [14]: 0.13 µg/mL (≈ 0.402 µM); MIC (strain #26 Shigella sonnei): 0.13 µg/mL (≈ 0.402 µM); MIC (strain #27 Shigella flexneri): 0.063 µg/mL (≈ 0.195 µM); MIC [15]: 0.13 µg/mL (≈ 0.402 µM); MIC [16]: 4 µg/mL (≈ 12.4 µM); MIC [17]: 4 µg/mL (≈ 12.4 µM); MIC [18]: 2 µg/mL (≈ 6.19 µM); MIC [19]: 4 µg/mL (≈ 12.4 µM); MIC [20]: 4 µg/mL (≈ 12.4 µM); MIC [21]: 4 µg/mL (≈ 12.4 µM); MIC [22]: 8 µg/mL (≈ 24.7 µM); MIC [23]: 32 µg/mL (≈ 99 µM)
